Measurements: article PMC10478824, “Development of FAPI Tetramers to Improve Tumor Uptake and Efficacy of FAPI Radioligand Therapy” (Journal of Nuclear Medicine, 2023)

Tests used:
[1] = In vitro stability in phosphate-buffered saline and fetal bovine serum (radio-HPLC); type: in vitro ADME; conditions: 4 h incubation in phosphate-buffered saline and fetal bovine serum
U87MG tumors = assay: Small-animal static PET in U87MG tumor-bearing mice; type: in vivo
Experimental: (§1) All animal experimental procedures were approved by the Animal Care and Ethics Committee of Xiamen University and performed in accordance with the Guidelines for the Care and Use of Animals of the Xiamen University Laboratory Animal Center. For in vivo experiments, 6-wk-old BALB/c nude mice (Beijing Vital River Laboratory Animal Technology Co., Ltd.) were subcutaneously inoculated with HT-1080-FAP or U87 cells (5 × 10^6 in 100 μL of phosphate-buffered saline) in the right shoulder.
(§2) Dynamic PET, static PET (with or without competition), and SPECT scans with radiolabeled monomeric, dimeric, and tetrameric FAPIs were performed on HT-1080-FAP tumor–bearing mice for pharmacokinetic evaluation. Additionally, static PET with ^68Ga-labeled monomeric, dimeric, and tetrameric FAPIs was performed and compared in U87MG tumor–bearing mice.
Approximately 7.4 MBq of ^68Ga-DOTA-4P(FAPI)4 was intravenously injected into HT-1080-FAP tumor–bearing mice (n = 3) for the 60-min dynamic PET. For multiple-time-point static PET (0.5, 1, 2, and 4 h after injection), 7.4 MBq of ^68Ga-FAPI-46, ^68Ga-DOTA-2P(FAPI)2, or ^68Ga-DOTA-4P(FAPI)4 were injected into HT-1080-FAP and U87MG tumor–bearing mice (3/group). For longer-term observation, HT-1080-FAP tumor–bearing mice were intravenously injected with 7.4 MBq of ^64Cu-NOTA-2P(FAPI)2 or ^64Cu-NOTA-4P(FAPI)4 (3/group). […]

HT-1080-FAP cells = assay: Cell uptake and blocking experiment; type: cell-based, human; conditions: 120 min
Experimental: (§3) A human fibrosarcoma cell line was stably transfected with FAP (HT-1080-FAP) and cultured, as previously described ([15]). A human glioblastoma cell line (U87MG, from the Chinese National Infrastructure of Cell Line Resource) was cultured in Dulbecco modified Eagle medium (Thermo Fischer Scientific) supplemented with 10% fetal bovine serum (Thermo Fisher Scientific). HT-1080-FAP cells were seeded in 24-well plates using RPMI 1640 medium with 10% fetal bovine serum, and the medium was replaced with fresh medium without fetal bovine serum when the cells reached 80%–90% density. ^68Ga-FAPI-46, ^68Ga-DOTA-2P(FAPI)2, ^68Ga-DOTA-4P(FAPI)4, or ^68Ga-DOTA-4P(FAPI)4 with 11.3 nmol of unlabeled FAPI-46 (for the blocking experiment) were added to the 24-well plates and incubated for 60, 90, and 120 min. For the competitive cell-binding assay, a gradient concentration (5.6 × 10^−13 to 10^−5 M) of FAPI-46, DOTA-2P(FAPI)2, or DOTA-4P(FAPI)4 was added to the cells and incubated with ^68Ga-FAPI-46 for 60 min. Similarly, a gradient concentration (5.4 × 10^−13 to 10^−5 M) of NOTA-2P(FAPI)2 or NOTA-4P(FAPI)4 was added to the cells and incubated with ^68Ga-FAPI-46 for 60 min. After each step, the cells were washed twice with phosphate-buffered saline (1 mL) and lysed with 1 M NaOH (0.5 mL). The radioactivity (counts per minute) was determined with a γ-counter (WIZARD^2 2480; PerkinElmer Inc.). All experiments were independently repeated 3 times. The 50% inhibitory concentrations were determined by fitting a nonlinear regression model to the data using Prism software, version 8 (GraphPad Software Inc.).

HT-1080-FAP tumors = assay: Small-animal PET in HT-1080-FAP tumor-bearing mice; type: in vivo
Experimental: as §1, §2
Approximately 7.4 MBq of ^68Ga-DOTA-4P(FAPI)4 was intravenously injected into HT-1080-FAP tumor–bearing mice (n = 3) for the 60-min dynamic PET. For multiple-time-point static PET (0.5, 1, 2, and 4 h after injection), 7.4 MBq of ^68Ga-FAPI-46, ^68Ga-DOTA-2P(FAPI)2, or ^68Ga-DOTA-4P(FAPI)4 were injected into HT-1080-FAP and U87MG tumor–bearing mice (3/group). For longer-term observation, HT-1080-FAP tumor–bearing mice were intravenously injected with 7.4 MBq of ^64Cu-NOTA-2P(FAPI)2 or ^64Cu-NOTA-4P(FAPI)4 (3/group). For the in vivo blocking experiment, PET imaging was performed 1 h after the simultaneous administration of 30 nmol of unlabeled FAPI-46 and 7.4 MBq of ^68Ga-DOTA-4P(FAPI)4.

[2] = biological target: T1, FAP (FAP-positive HT-1080-FAP cells) (Homo sapiens, UniProt Q12884); assay: Competitive cell-binding assay against ^68Ga-FAPI-46; conditions: competition with ^68Ga-FAPI-46, 60 min, read-out: 50% inhibitory concentration
T1 construct: expressed in transfected cells; host or cells: HT-1080 human fibrosarcoma cells, stably transfected (HT-1080-FAP)
T1 sequence (Q12884 1-760): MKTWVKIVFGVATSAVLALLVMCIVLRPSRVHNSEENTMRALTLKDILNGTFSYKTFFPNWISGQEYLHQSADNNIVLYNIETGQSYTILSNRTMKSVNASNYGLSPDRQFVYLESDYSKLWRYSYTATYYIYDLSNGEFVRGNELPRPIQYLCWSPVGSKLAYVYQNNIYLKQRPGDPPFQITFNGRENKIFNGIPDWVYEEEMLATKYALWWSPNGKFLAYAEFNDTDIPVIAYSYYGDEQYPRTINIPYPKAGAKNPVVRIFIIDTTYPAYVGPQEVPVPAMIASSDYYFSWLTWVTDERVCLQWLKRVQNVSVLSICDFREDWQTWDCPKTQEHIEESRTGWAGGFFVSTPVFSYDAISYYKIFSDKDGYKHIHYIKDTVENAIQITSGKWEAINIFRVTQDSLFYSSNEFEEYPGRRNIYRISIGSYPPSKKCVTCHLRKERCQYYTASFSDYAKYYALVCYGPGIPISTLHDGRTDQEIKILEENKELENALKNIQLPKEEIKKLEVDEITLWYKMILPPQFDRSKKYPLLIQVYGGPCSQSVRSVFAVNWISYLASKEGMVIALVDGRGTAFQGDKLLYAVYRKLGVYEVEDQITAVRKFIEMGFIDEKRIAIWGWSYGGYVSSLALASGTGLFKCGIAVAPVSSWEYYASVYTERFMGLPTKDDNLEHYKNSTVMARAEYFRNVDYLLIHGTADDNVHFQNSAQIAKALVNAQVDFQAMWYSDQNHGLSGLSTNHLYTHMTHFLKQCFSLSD
Experimental: as §3, with “Similarly, a gradient concentration (5.4 × 10^−13 to 10^−5 M) of NOTA-2P(FAPI)2 or NOTA-4P(FAPI)4 was added to the cells and incubated with ^68Ga-FAPI-46 for 60 min. After each step, the cells were washed twice with phosphate-buffered saline (1 mL) and lysed with 1 M NaOH (0.5 mL).” left out, “All experiments were independently repeated 3 times.” left out

Row | Compound | in vitro stability (demetallation / free radioactivity) [1] | in vitro stability (demetallation / free radioactivity) ([1]; listed as 68Ga-DOTA-4P[FAPI]4) | washout from tumor (U87MG tumors; PET 0.5-4 h after injection) | tumor uptake SUVmean (U87MG tumors; PET, 1 h after injection) | cell uptake (HT-1080-FAP cells) | reduction of cell uptake by blocking (HT-1080-FAP cells; unlabeled FAPI-46) | cell uptake with blocking (HT-1080-FAP cells; with 11.3 nmol unlabeled FAPI-46) | elimination route (HT-1080-FAP tumors; HT-1080-FAP tumor-bearing mice, PET) | reduction in tumor uptake by blocking (HT-1080-FAP tumors; HT-1080-FAP tumors, 1 h after injection, unlabeled FAPI-46) | tumor uptake SUVmean without blocking (HT-1080-FAP tumors; HT-1080-FAP tumors, PET, 1 h after injection) | tumor uptake SUVmean with blocking (HT-1080-FAP tumors; HT-1080-FAP tumors, PET, 1 h after injection, coinjection of 30 nmol unlabeled FAPI-46) | tumor uptake SUVmean (HT-1080-FAP tumors; HT-1080-FAP tumors, PET, 4 h after injection) | course of tumor uptake over time (HT-1080-FAP tumors; HT-1080-FAP tumors, static PET up to 4 h after injection) | IC50 [2]
1 | CN(CCCN1CCN(C(=O)COCCOCCOCCNC(=O)CCC(=O)NCCCC[C@H](NC(=O)CCC(=O)NCCOCCOCCOCC(=O)N2CCN(CCCN(C)c3ccc4nccc(C(=O)NCC(=O)N5CC(F)(F)C[C@H]5C#N)c4c3)CC2)C(=O)NCCCC[C@H](NC(=O)[C@H](CCCCNC(=O)CN2CCN(CC(=O)[O-])CCN(CC(=O)[O-])CCN(CC(=O)[O-])CC2)NC(=O)CCC(=O)NCCOCCOCCOCC(=O)N2CCN(CCCN(C)c3ccc4nccc(C(=O)NCC(=O)N5CC(F)(F)C[C@H]5C#N)c4c3)CC2)C(=O)NCCOCCOCCOCC(=O)N2CCN(CCCN(C)c3ccc4nccc(C(=O)NCC(=O)N5CC(F)(F)C[C@H]5C#N)c4c3)CC2)CC1)c1ccc2nccc(C(=O)NCC(=O)N3CC(F)(F)C[C@H]3C#N)c2c1.[68Ga+3] [^68Ga-DOTA-4P(FAPI)4] | highly stable | neither significant demetallation nor free radioactivity was observed | minimal | 0.72 ± 0.02 | 57.98% ± 0.27% | 97% | 1.79% ± 0.97% | eliminated predominantly through the kidneys and bladder | 92% | 1.87 ± 0.08 | 0.16 ± 0.03 | 1.99 ± 0.09 | tumor uptake remained constant up to 4 h after injection | –
2 | CN(CCCN1CCN(C(=O)CN2CCN(CC(=O)O)CCN(CC(=O)O)CCN(CC(=O)O)CC2)CC1)c1ccc2nccc(C(=O)NCC(=O)N3CC(F)(F)C[C@H]3C#N)c2c1 [FAPI-46, reference compound] | – | – | – | – | – | – | – | – | – | – | – | – | – | 11.4 nM
